The text below walks through data of ChEMBL document CHEMBL1201862, “PubChem BioAssay data set” (2004).

What all share (test): inhibition of tumour cell growth, NCI panel, 48 h
Assay [1] has as its system T47D.
Assay [2] deals with ACHN.
Assay [3] concerns OVCAR-4.
The test system of assay [4] is SNB-75.
For assay [5], the system named is UACC-62.
The subject of assay [6] is CCRF-CEM.
The test system of assay [7] is Hs-578T.
Assay [8] relates to MDA-N.
The subject of assay [9] is SN12C.
In assay [10] the test system is Malme-3M.
The test system of assay [11] is SF-539.
Assay [12] deals with SW-620.
Assay [13] relates to HT-29.
Assay [14] relates to A498.
Assay [15] relates to SK-MEL-2.
Assay [16] concerns EKVX.
Assay [17] has as its system COLO 205.
Assay [18] has as its system SK-MEL-5.
In assay [19] the test system is KM12.
Assay [20] deals with RXF 393.

Molecules are shown by their SMILES.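 Five concentrations, 48 hours, 96-well plates. GI50 marks 50% less growth.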 Activity calls are given as the source filed them. Cut-off read from the data, not from the text of the source: active = GI50 up to about 1.1 µM and inactive = higher.

For `CCCCCCCCCCCCC/C=C/[C@@H](O)[C@H](COC1OC(CO)C(OC2OC(CO)C(O)C(OC3(C(=O)O)CC(O)C(NC(C)=O)C(C(O)C(O)CO)O3)C2O)C(O)C1O)N=[N+]=[N-]` (stereo not given in full), the GI50 in [1] is 48.5 µM (inactive); in assay [2], > 100 µM (inactive); in assay [3], > 100 µM (inactive); in assay [4], 15.9 µM (inactive); in assay [5], 15.8 µM (inactive); in assay [6], 22.5 µM (inactive). In addition, the GI50 in [7] is 55.7 µM (inactive); in assay [8], > 100 µM (inactive); in [9], > 100 µM (inactive); in [10], 21.8 µM (inactive); in assay [11] it was 17.5 µM (inactive); in assay [12], 26.7 µM (inactive). Moreover, the GI50 in assay [13] was 22 µM (inactive); in [14], 47.2 µM (inactive); in assay [15] it was 17.5 µM (inactive); in assay [16], > 100 µM (inactive); in assay [17], 17.8 µM (inactive); in assay [18], 17.4 µM (inactive). Besides, the values for the GI50 in assay [19] and in assay [20] were 18.5 µM (inactive) and 20.7 µM (inactive), respectively.

On to `COc1ccc2c(c1)C(=O)C(=O)c1cc(O)c(OC)c(OC)c1-2`, for which the GI50 in assay [1] is 1.13 µM (inactive); in [2] it was 0.893 µM (active); in [3] it was 0.719 µM (active); in assay [4] it was 1.18 µM (inactive); in [5], 0.849 µM (active); in [6], 0.791 µM (active). Besides, the GI50 is 1.07 µM (active) in assay [7]; 0.697 µM (active) in assay [8]; 0.879 µM (active) in assay [9]; 0.832 µM (active) in assay [10]; 1.85 µM (inactive) in [11]; 1.2 µM (inactive) in assay [12]. Moreover, the GI50 in assay [13] is 1.32 µM (inactive); in assay [14] it was 4.48 µM (inactive); in [15] it was 0.861 µM (active); in assay [16] it was 0.979 µM (active); in assay [17] it was 1.31 µM (inactive); in assay [18], 0.826 µM (active). In addition, the figures for the GI50 in [19] and in assay [20] were 0.979 µM (active) and 0.9 µM (active), respectively.

As for `Cc1cccc(C)c1NC(=O)/C(Cl)=C(/Cl)C(=O)O`, the GI50 in assay [1] is 27.9 µM (inactive); in [2] it was 15.4 µM (inactive); in assay [3], 18.5 µM (inactive); in assay [4], 20.2 µM (inactive); in assay [5], 13.7 µM (inactive); in assay [6] it was 2.95 µM (inactive). The GI50 in assay [7] is 33.3 µM (inactive); in [8], 19.2 µM (inactive); in assay [9] it was 18.7 µM (inactive); in [10] it was 14.7 µM (inactive); in assay [11] it was 23.1 µM (inactive); in assay [12], 7.74 µM (inactive). Moreover, the GI50 was 17.5 µM (inactive) in assay [13]; 33.5 µM (inactive) in [14]; 16.7 µM (inactive) in assay [15]; 19.5 µM (inactive) in [16]; 7.11 µM (inactive) in assay [17]; 19.9 µM (inactive) in assay [18]. For the same molecule, the GI50 was 15.3 µM (inactive) in assay [19] and 18.8 µM (inactive) in [20].

Turning to `CCC12CC(c3ccccc3)C(C(=O)N1)C(=O)N2` (stereo not given), the GI50 in [1] is > 100 µM (inactive); in assay [2], > 100 µM (inactive); in assay [3] it was > 100 µM (inactive); in assay [4], 65.3 µM (inactive); in assay [5], > 100 µM (inactive); in [6], > 100 µM (inactive). Moreover, the GI50 in assay [7], in [8], in [9], in assay [10], in assay [11] and in assay [12] was > 100 µM (inactive) each time. Moreover, the GI50 in assay [13], in assay [14], in [15], in [16], in assay [17] and in assay [18] was > 100 µM (inactive) in each case. Further, the GI50 in assay [19] and in assay [20] was > 100 µM (inactive) each time.

With `Cc1cccc(C(C)(C)C)c1NC(=O)C(C#N)C1=C(Cl)C(=O)c2ccccc2C1=O` (stereo not given), the GI50 in assay [1] was 9.95 µM (inactive); in assay [2] it was 14.5 µM (inactive); in assay [3] it was 15.4 µM (inactive); in assay [4] it was 13.7 µM (inactive); in assay [5] it was 18.2 µM (inactive); in assay [6], 0.843 µM (active). In addition, the GI50 in assay [7] is 21.1 µM (inactive); in [8], 14.4 µM (inactive); in assay [9] it was 17.3 µM (inactive); in [10] it was 17.2 µM (inactive); in [11], 18.1 µM (inactive); in assay [12] it was 14.5 µM (inactive). Further, the GI50 in [13] was 20.8 µM (inactive); in assay [14] it was 24.9 µM (inactive); in assay [15], 16.1 µM (inactive); in [16], 12.5 µM (inactive); in assay [17] it was 17.5 µM (inactive); in assay [18], 17 µM (inactive). Besides, the GI50 in assay [19] was 16.3 µM (inactive); in assay [20] it was 16.9 µM (inactive).

Regarding `O=C(O)C1CSC2(CCCN(Cc3ccccc3)C2)N1` (stereo not given), the GI50 is > 100 µM (inactive) in assay [1]; > 100 µM (inactive) in assay [2]; > 100 µM (inactive) in assay [3]; > 100 µM (inactive) in assay [4]; > 100 µM (inactive) in [5]; 23.4 µM (inactive) in [6]. The GI50 in assay [7], in assay [8], in assay [9], in [10], in assay [11] and in assay [12] was > 100 µM (inactive) in each case. For the same molecule, the GI50 in assay [13], in [14], in [15], in assay [16], in assay [17] and in assay [18] was > 100 µM (inactive) in each case. Also, the GI50 in [19] and in [20] was > 100 µM (inactive) each time.

Consider `COC(=O)/C=C\C(C#N)(C#N)/N=C/c1cc(Br)cs1`, for which the GI50 in assay [1] is 2.12 µM (inactive); in assay [2], 2.22 µM (inactive); in assay [3] it was 7.91 µM (inactive); in [4], 16.2 µM (inactive); in [5], 17.7 µM (inactive); in assay [6], 0.0914 µM (active). Moreover, the GI50 in [7] was 22.8 µM (inactive); in assay [8] it was 2.67 µM (inactive); in assay [9], 3.18 µM (inactive); in assay [10], 1.71 µM (inactive); in assay [11], 4.8 µM (inactive); in assay [12], 1.15 µM (inactive). Besides, the GI50 in [13] was 1.94 µM (inactive); in assay [14], 18.5 µM (inactive); in [15] it was 10.6 µM (inactive); in [16] it was 7.45 µM (inactive); in assay [17], 1.98 µM (inactive); in assay [18] it was 6.3 µM (inactive). Further, the GI50 in assay [19] is 21 µM (inactive); in assay [20], 2.27 µM (inactive).

`COc1cccc(C2ON=C(c3ccccc3)N2C23CC4CC(CC(C4)C2)C3)c1` (stereo not given): the GI50 in assay [1] is > 10 µM (inactive); in assay [2], > 10 µM (inactive); in assay [3], 5.46 µM (inactive); in assay [4], 8.91 µM (inactive); in assay [5] it was > 10 µM (inactive); in [6] it was > 10 µM (inactive). The GI50 in assay [7], in assay [8], in assay [9], in assay [10], in assay [11] and in [12] was > 10 µM (inactive) throughout. Further, the GI50 in [13], in assay [14], in [15], in [16], in [17] and in [18] was > 10 µM (inactive) throughout. Further, the GI50 in assay [19] and in [20] was > 10 µM (inactive) each time.

For `CC(C#N)(c1ccccc1)N(CCc1ccccc1)C(=O)Oc1ccccc1` (stereo not given), the GI50 is > 100 µM (inactive) in [1]; > 100 µM (inactive) in assay [2]; 30.7 µM (inactive) in [3]; 25.9 µM (inactive) in [4]; > 100 µM (inactive) in [5]; > 100 µM (inactive) in assay [6]. Moreover, the GI50 in assay [7] was 35.5 µM (inactive); in [8] it was > 100 µM (inactive); in assay [9] it was > 100 µM (inactive); in [10] it was > 100 µM (inactive); in assay [11], > 100 µM (inactive); in assay [12], > 100 µM (inactive). The GI50 in assay [13], in assay [14], in [15], in assay [16], in assay [17] and in assay [18] was > 100 µM (inactive) throughout. Also, the GI50 in [19] is > 100 µM (inactive); in assay [20] it was 26.7 µM (inactive).

In the case of `COc1cc(C2c3cc4c(cc3OC(N3CCCC3)C2C)OCO4)cc(OC)c1O` (stereo not given), the GI50 in assay [1] is 31.8 µM (inactive); in [2] it was 28.6 µM (inactive); in [3] it was 59.6 µM (inactive); in assay [4], 4.26 µM (inactive); in assay [5] it was 5.16 µM (inactive); in assay [6], 15.1 µM (inactive). For the same molecule, the GI50 in assay [7] is 4.66 µM (inactive); in assay [8], 2.31 µM (inactive); in assay [9] it was 23.4 µM (inactive); in assay [10], 8.09 µM (inactive); in assay [11] it was 14.9 µM (inactive); in assay [12], 6.89 µM (inactive). Besides, the GI50 was 17.4 µM (inactive) in assay [13]; 21.1 µM (inactive) in assay [14]; 14.8 µM (inactive) in assay [15]; 32.5 µM (inactive) in [16]; 23.1 µM (inactive) in assay [17]; 4.9 µM (inactive) in [18]. Also, the GI50 in assay [19] was 6.59 µM (inactive); in [20], 7.46 µM (inactive).
